The numbers were not newly measured in patent publication US10413588B2, “Probiotic function of human intelectin” (Wisconsin Alumni Research Foundation, priority 2015, dated 2019), which cites them from elsewhere.

The series addresses hIntL-1 (Homo sapiens, UniProt Q8WWA0). Particulars: reported by Tsuji et al., 2001; read-out: apparent KD / apparent affinity for hIntL-1.

hIntL-1, sequence (Q8WWA0 19-298): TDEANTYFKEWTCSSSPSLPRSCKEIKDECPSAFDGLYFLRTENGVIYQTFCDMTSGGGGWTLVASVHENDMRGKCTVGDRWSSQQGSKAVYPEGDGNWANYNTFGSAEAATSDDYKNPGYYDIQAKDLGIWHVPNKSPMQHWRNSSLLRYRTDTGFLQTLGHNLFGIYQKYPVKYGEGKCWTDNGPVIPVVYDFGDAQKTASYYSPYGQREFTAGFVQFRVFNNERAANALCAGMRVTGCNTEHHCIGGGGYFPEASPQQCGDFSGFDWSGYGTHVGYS

Regarding `O=C[C@H](O)[C@H](O)[C@H](O)CO` [D-ribose], the Kd is 5 mM.
